Measured values: patent publication US20260256796A1, “METHOD FOR TREATING FELINE CORONAVIRUS OR CALICIVIRUS INFECTION” (VIGONVITA LIFE SCIENCES CO., LTD., priority 2022, published 2026)

Assays:
[1] = Pharmacokinetic evaluation in rats; assay type: in vivo; settings: male, SD; for AUC(0-inf) / AUC(0-t) / Cmax: nucleoside (compound 4) in rat plasma
Procedure: Male SD rats were fasted before the experiment (except for the intravenous group, which was not fasted), with free access to water, and were fed uniformly 2 h after administration. Compound 4 was administered by intravenous injection at a dose of 2.0 mg/kg (n=3) and administered intragastrically at a dose of 10.0 mg/kg (n=3); compound 53 was administered by intravenous injection at a dose of 5.0 mg/kg (n=3) and administered intragastrically at a dose of 20.0 mg/kg (n=3); the administration vehicle was 5% DMSO+5% ethanol+40% PEG300+50% saline. After the administration, 0.2-mL blood samples were collected via the jugular vein at different time points. Each blood sample was then placed into a heparin sodium anticoagulation tube, gently mixed uniformly, and centrifuged at 2000 g for 10 min. Plasma was isolated and frozen in a refrigerator at −70° C. for later analysis. The concentration of nucleoside (compound 4) in the plasma was determined by the LC-MS-MS method, and pharmacokinetic parameters were calculated.

[2] = system: feline infectious peritonitis virus (FIPV); test: Inhibitory activity against feline coronavirus (FIPV) in CRFK cells, CellTiter-Glo readout; assay type: cell-based; settings: for EC50: Alphacoronavirus 1, FIPV 0.1 MOI/well, 72 h, CellTiter-Glo; for inhibition of replication of FIPV in vitro: summary of Table 1
Procedure: CRFK cells in a good growth state were seeded into a 96-well assay plate. When the cells grew to 80%-90% confluence, feline coronavirus (FIPV) (0.1 MOI/well) and varying concentrations of the test compounds were added to the assay plate. Meanwhile, a cell control (cells, no compound treatment or viral infection) and a virus control (cells infected with virus, no compound treatment) were set. The final concentration of DMSO in the culture solution was 1%. After incubation at 37° C. for 72 h, the cells were treated with a CellTiter-Glo luminescent cell viability assay reagent (Promega, Madison, WI, USA). The half-maximal effective concentration (EC50) values of the compounds for virus inhibition were calculated using the GraphPad prism 7 software.

Structure (SMILES) | EC50 [2] [nM] | inhibition of replication of FIPV in vitro [2] | also measured
[2H]c1cc([C@]2(C#N)O[C@H](CO)[C@@H](O)[C@H]2O)n2ncnc(N)c12 [Compound 4] | 2340 | – | bioavailability ([1]; plasma, rat, nucleoside (compound 4) measured, po 10.0 mg/kg vs iv 2.0 mg/kg, read-out: F (oral bioavailability)): 21.7%; AUC(0-inf) ([1]; iv 2.0 mg/kg): 1790 ng·h/mL; AUC(0-t) ([1]; iv 2.0 mg/kg): 1720 ng·h/mL; Cmax ([1]; iv 2.0 mg/kg): 1630 ng/mL; AUC(0-inf) ([1]; po 10.0 mg/kg): 1910 ng·h/mL; AUC(0-t) ([1]; po 10.0 mg/kg): 1870 ng·h/mL; Cmax ([1]; po 10.0 mg/kg): 246 ng/mL
CC(C)C(=O)OC[C@H]1O[C@@](C#N)(c2ccc3c(N)ncnn23)[C@H](O)[C@@H]1O [Compound 6] | 650 | could inhibit the replication | –
[2H]c1cc([C@]2(C#N)O[C@H](COC(=O)C(C)C)[C@@H](O)[C@H]2O)n2ncnc(N)c12 [Compound 11] | 690 | could inhibit the replication | –
CC(C)C(=O)O[C@H]1[C@@H](O)[C@](C#N)(c2ccc3c(N)ncnn23)O[C@@H]1CO [Compound 20] | 690 | could inhibit the replication | –
N#C[C@@]1(c2ccc3c(N)ncnn23)O[C@H](CO)[C@H]2OC(=O)O[C@H]21 [Compound 25] | 2750 | – | –
CC(C)C(=O)OC[C@H]1O[C@@](C#N)(c2ccc3c(N)ncnn23)[C@H](OC(=O)C(C)C)[C@@H]1OC(=O)C(C)C [Compound 27] | 1590 | – | –
[2H]c1cc([C@]2(C#N)O[C@H](COC(=O)CC)[C@@H](O)[C@H]2O)n2ncnc(N)c12 [Compound 29] | 1100 | – | –
[2H]c1cc([C@]2(C#N)O[C@H](COC(=O)C(CC)CC)[C@@H](O)[C@H]2O)n2ncnc(N)c12 [Compound 32] | 43800 | – | –
[2H]c1cc([C@]2(C#N)O[C@H](COC(C)=O)[C@@H](OC(C)=O)[C@H]2OC(C)=O)n2ncnc(N)c12 [Compound 40] | 1050 | – | –
[2H]c1cc([C@]2(C#N)O[C@H](COC(=O)C(C)C)[C@@H](OC(=O)C(C)C)[C@H]2OC(=O)C(C)C)n2ncnc(N)c12 [Compound 42] | 1630 | – | –
[2H]c1cc([C@]2(C#N)O[C@H](COC(C)=O)[C@@H](O)[C@H]2O)n2ncnc(N)c12 [Compound 52] | 1300 | – | –
[2H]c1cc([C@]2(C#N)O[C@H](COC(=O)C(C)C)[C@H]3OC(=O)O[C@H]32)n2ncnc(N)c12 [Compound 53] | 660 | could inhibit the replication | –
N#C[C@@]1(c2ccc3c(N)ncnn23)O[C@H](CO)[C@@H](O)[C@H]1O [GS-441524, reference compound] | 2290 | – | –
